Source: patent US20140350285A1, “NOVEL POLYMORPHS OF N-[2-AMINO-4-(4-FLUOROBENZYLAMINO)-PHENYL] CARBAMIC ACID ETHYL ESTER AND PROCESSES THEREOF” (SYMED LABS LIMITED, priority 2012, published 2014)
≈ marks a conversion by molar mass, not a printed value.

Legend:
[1] = Comparative solubility profile of crystalline forms in diluents
[2] = Chemical and polymorphic stability under stability testing conditions; assay type: physicochemical; settings: 25±2° C. and 75% RH, inert atmosphere
[3] = Polymorphic stability on storage, analysed by XRPD; assay type: physicochemical; settings: stored at 25° C.±2° C., about 70% RH (result sentence: about 76% RH), 6 weeks
[4] = diluent: Solvent Methylene chloride

| Structure (SMILES) | Solubility ([1]; diluent: Solvent Acetone) | Solubility ([1]; diluent: Solvent Alcohol (96%)) | Solubility ([1]; diluent: Solvent DMSO) | Solubility [1, 4] | Solubility ([1]; diluent: Water) | Solubility ([1]; diluent: pH Buffer 1.2 pH) | Solubility ([1]; diluent: pH Buffer 4.5 pH) | Solubility ([1]; diluent: pH Buffer 8.5 pH) | Solubility ([1]; DMSO, organic solvent or mixture, Solubility, diluent: Solvent DMSO) | Solubility ([1]; acetone, organic solvent or mixture, Solubility, diluent: Solvent Acetone) | Solubility ([1]; alcohol (96%), organic solvent or mixture, Solubility, diluent: Solvent Alcohol (96%)) | Solubility ([1]; methylene chloride, organic solvent or mixture, Solubility, diluent: Solvent Methylene chloride) | Solubility ([1]; pH buffer, pH 1.2, simulated gastric fluid, Solubility, diluent: pH Buffer 1.2 pH) | Solubility ([1]; pH buffer, pH 4.5, aqueous buffer, Solubility, diluent: pH Buffer 4.5 pH) | Solubility ([1]; pH buffer, pH 8.5, aqueous buffer, Solubility, diluent: pH Buffer 8.5 pH) | Solubility ([1]; water, Solubility, diluent: Water) | Chemical and polymorphic stability [2] | Solubility profile compared to known polymorphs (crystalline modifications A, B, and C) [1] | Polymorphic stability (XRPD) [3] |
| --- | --- | --- | --- | --- | --- | --- | --- | --- | --- | --- | --- | --- | --- | --- | --- | --- | --- | --- | --- |
| CCOC(=O)Nc1ccc(NCc2ccc(F)cc2)cc1N [Modification-B, N-[2-amino-4-(4-fluorobenzylamino)-phenyl]carbamic acid ethyl ester] | 280 mg/mL (≈ 923 mM) | 22 mg/mL (≈ 72.5 mM) | 700 mg/mL (≈ 2310 mM) | 80 mg/mL (≈ 264 mM) | <0.1 mg/mL | 10 mg/mL (≈ 33 mM) | <0.1 mg/mL | <0.1 mg/mL |  |  |  |  |  |  |  |  |  |  |  |
| CCOC(=O)Nc1ccc(NCc2ccc(F)cc2)cc1N [Modification-C, N-[2-amino-4-(4-fluorobenzylamino)-phenyl]carbamic acid ethyl ester] |  |  |  |  |  |  |  |  | 700 mg/mL (≈ 2310 mM) | 310 mg/mL (≈ 1020 mM) | 16 mg/mL (≈ 52.7 mM) | 50 mg/mL (≈ 165 mM) | 11 mg/mL (≈ 36.3 mM) | < 0.1 mg/mL | < 0.1 mg/mL | < 0.1 mg/mL |  |  |  |
| CCOC(=O)Nc1ccc(NCc2ccc(F)cc2)cc1N [Form-II, N-[2-amino-4-(4-fluorobenzylamino)-phenyl]carbamic acid ethyl ester] | 250 mg/mL (≈ 824 mM) | 24 mg/mL (≈ 79.1 mM) | 700 mg/mL (≈ 2310 mM) | 70 mg/mL (≈ 231 mM) | <0.1 mg/mL | 10 mg/mL (≈ 33 mM) | <0.1 mg/mL | <0.1 mg/mL |  |  |  |  |  |  |  |  | substantially stable chemically and polymorphically | better solubility profile | polymorphically stable |
| CCOC(=O)Nc1ccc(NCc2ccc(F)cc2)cc1N [Form-I, N-[2-amino-4-(4-fluorobenzylamino)-phenyl]carbamic acid ethyl ester] | 290 mg/mL (≈ 956 mM) | 25 mg/mL (≈ 82.4 mM) | 700 mg/mL (≈ 2310 mM) | 40 mg/mL (≈ 132 mM) | <0.1 mg/mL | 10 mg/mL (≈ 33 mM) | <0.1 mg/mL | <0.1 mg/mL |  |  |  |  |  |  |  |  | substantially stable chemically and polymorphically | better solubility profile | polymorphically stable |
| CCOC(=O)Nc1ccc(NCc2ccc(F)cc2)cc1N [Modification-A, N-[2-amino-4-(4-fluorobenzylamino)-phenyl]carbamic acid ethyl ester] | 280 mg/mL (≈ 923 mM) | 23 mg/mL (≈ 75.8 mM) | 800 mg/mL (≈ 2640 mM) | 50 mg/mL (≈ 165 mM) | <0.1 mg/mL | 13 mg/mL (≈ 42.9 mM) | <0.1 mg/mL | <0.1 mg/mL |  |  |  |  |  |  |  |  |  |  |  |
